The supplement of paper PMC10307832

Key:
Assay in all cases: relative viability (nuclei count vs DMSO), 5 days (fraction); higher = more cells survive
[1] = compound: CCOC1=CC=CC=C1N=NC2=C(NN(C2=O)C3=NC(=CS3)C4=CC=CC=C4)C [BAM7] + COc1cc2c(Oc3ccc(NC(=O)C4(C(=O)Nc5ccc(F)cc5)CC4)cc3F)ccnc2cc1OCCCN1CCOCC1 [Foretinib] (partner 0.25 µM)
Procedure, shortened: (§1)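 A single step with final 0.05% Triton X-100, 1% formaldehyde and 1 ug/ml Hoechst fixed the cells and stained nuclei 5 days after treatment. Lung cancer cell lines in 1536-well plates had been treated by pin tool the day after seeding with one drug alone or a fixed anchor-drug dose plus five library-drug doses (not always all listed) in √10 steps, and nuclei were counted on 4× images. Relative viability is the ratio of nuclei in treated wells to nuclei in vehicle wells, taken as the median of duplicate plates.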

[2] = compound: CCOC1=CC=CC=C1N=NC2=C(NN(C2=O)C3=NC(=CS3)C4=CC=CC=C4)C [BAM7] + CS(=O)(=O)CCNCc1ccc(-c2ccc3ncnc(Nc4ccc(OCc5cccc(F)c5)c(Cl)c4)c3c2)o1 [Lapatinib] (partner 2 µM)
Procedure, shortened: as §1

[3] = compound: CCn1c(-c2nonc2N)nc2c(C#CC(C)(C)O)ncc(OC[C@H]3CCCNC3)c21 + COc1cccc2cc(-c3nc([C@H]4CC[C@H](C(=O)O)CC4)n4ncnc(N)c34)[nH]c12 [OSI-027] (partner 0.5 µM)
Procedure, shortened: as §1

[4] = compound: CCn1c(-c2nonc2N)nc2c(C#CC(C)(C)O)ncc(OC[C@H]3CCCNC3)c21 + O=C(c1cc(Cc2n[nH]c(=O)c3ccccc23)ccc1F)N1CCN(C(=O)C2CC2)CC1 [Olaparib] (partner 8 µM)
Procedure, shortened: as §1

Cell Line | relative viability ([1]; first compound 0.5 µM) | relative viability ([1]; first compound 5 µM) | relative viability ([1]; first compound 15.81 µM) | relative viability ([1]; first compound 50 µM) | relative viability ([2]; first compound 0.5 µM) | relative viability ([2]; first compound 5 µM) | relative viability ([2]; first compound 15.81 µM) | relative viability ([2]; first compound 50 µM) | relative viability ([3]; first compound 0.01 µM) | relative viability ([3]; first compound 0.03162 µM) | relative viability ([3]; first compound 0.1 µM) | relative viability ([3]; first compound 0.3162 µM) | relative viability ([3]; first compound 1 µM) | relative viability ([4]; first compound 0.01 µM) | relative viability ([4]; first compound 0.03162 µM) | relative viability ([4]; first compound 0.1 µM) | relative viability ([4]; first compound 0.3162 µM) | relative viability ([4]; first compound 1 µM)
HCC-366 | 0.92 | 0.849 | 0.94 | 0.836 | 1.09 | 1.1 | 1.03 | 0.984 | 0.963 | 0.834 | 0.45 | 1 | 0.838 | 0.421 | 0.366 | 0.359 | 0.321 | 0.354
HCC-827 | 0.967 | 1.05 | 1.03 | 0.998 | 0.205 | 0.2 | 0.205 | 0.202 | 0.74 | 0.769 | 0.698 | 0.639 | 0.667 | 0.602 | 0.671 | 0.661 | 0.622 | 0.683
HOP-62 | 1.25 | 1.2 | 1.05 | 1.09 | 1.09 | 1.27 | 0.969 | 0.986 | 0.834 | 0.748 | 0.695 | 0.769 | 0.78 | 0.396 | 0.419 | 0.445 | 0.521 | 0.603
IA-LM | 1.36 | 1.2 | 1.03 | 1.21 | 0.766 | 0.816 | 0.784 | 0.748 |  |  |  |  |  | 0.942 | 0.791 | 0.937 | 1.3 | 0.786
LC-2-ad | 0.908 | 0.911 | 0.829 | 0.908 | 1.09 | 0.948 | 0.933 | 0.859 | 0.71 | 0.804 | 0.871 | 0.681 | 0.857 | 0.739 | 0.719 | 0.716 | 0.657 | 0.698
LCLC-97TM1 | 0.975 | 0.963 | 0.935 | 0.883 | 1 | 1.21 | 1.04 | 1.31 | 0.49 | 0.502 | 0.484 | 0.515 | 0.439 | 0.413 | 0.509 | 0.347 | 0.391 | 0.321
LCLC-103H | 0.693 | 0.741 | 0.739 | 0.777 |  |  |  |  | 0.463 | 0.477 | 0.481 | 0.425 | 0.356 | 0.705 | 0.795 | 0.747 | 0.766 | 0.795
LK-2 | 1.15 | 1.23 | 1.18 | 1.29 | 1.22 | 1.03 | 1.02 | 1.11 | 0.199 | 0.212 | 0.179 | 0.218 | 0.173 | 0.641 | 0.566 | 0.645 | 0.865 | 0.72
LOU-NH91 | 0.913 | 1.03 | 0.904 | 0.936 | 0.749 | 0.822 | 0.767 | 0.819 | 0.718 | 0.694 | 0.706 | 0.625 | 0.594 | 0.936 | 0.914 | 0.936 | 0.797 | 0.856
